Values joined by “and” are separate entries in the source; they are usually repeats but may differ in a detail not shown here. Equal entries are not always repeated. Where a SMILES comes first, the peptide text is derived from it. [ ]: non-standard residue; d: D form. Hyp = O=C(O)[C@@H]1C[C@@H](O)CN1
Tested on: IL-10
Test: Example 9 Luminex, LPS hPBMCs: IL-10
Assay type: cell-based, human
Conditions: for Concentration / conc/live cell (pg/10^5): IL-10
Procedure: Treatment Human PBMCs were pretreated with YY-101, YDE-011 and YDE-043 or reference compound; Xiidra® at various concentration (ranging from 1 nM to 100 uM) for 2 h before stimulation. An equal volume of 0.5% DMSO was used as a vehicle control. Then, the cells were treated with LPS at 5 ug/ml. The supernatants from treated cells were harvested at 24 h and placed in a 96 well for Luminex cytokine & chemokine profiling using a Luminex 200 multiplex assay (Luminex; R&D system, USA).
The main study arm with triplicate wells per group in a 24-well plate: • 1. Blank • 2. PBMC: 0.5% DMSO • 3. PBMC+LPS (5 ug/ml) • 4. PBMC+YY-101 100 uM • 5. PBMC+YY-101 10 uM • 6. PBMC+YY-101 1 uM • 7. PBMC+YY-101 0.1 uM • 8. PBMC+YY-101 0.01 uM • 9. PBMC+LPS (5 ug/ml)+Xiidra®100 uM • 10. PBMC+LPS (5 ug/ml)+Xiidra® 10 uM • 11. PBMC+LPS (5 ug/ml)+Xiidra® 1 uM • 12. PBMC+LPS (5 ug/ml)+Xiidra®0.1 uM • 13. PBMC+LPS (5 ug/ml)+Xiidra®0.01 uM • 14. PBMC+LPS (5 ug/ml)+Xiidra®0.001 uM • 15. PBMC+LPS (5 ug/ml)+YY-101 100 uM • 16. PBMC+LPS (5 ug/ml)+YY-101 10 uM • 17. PBMC+LPS (5 ug/ml)+YY-101 1 uM • 18. PBMC+LPS (5 ug/ml)+YY-101 0.1 uM • 19. PBMC+LPS (5 ug/ml)+YY-101 0.01 uM • 20. PBMC+LPS (5 ug/ml)+YY-101 0.001 uM • 21. PBMC+LPS (5 ug/ml)+YDE-011 100 uM • 22. PBMC+LPS (5 ug/ml)+YDE-011 10 uM • 23. PBMC+LPS (5 ug/ml)+YDE-011 1 uM • 24. PBMC+LPS (5 ug/ml)+YDE-011 0.1 uM • 25. PBMC+LPS (5 ug/ml)+YDE-011 0.01 uM • 26. PBMC+LPS (5 ug/ml)+YDE-011 0.001 uM • 27. PBMC+LPS (5 ug/ml)+YDE-043 100 uM • 28. PBMC+LPS (5 ug/ml)+YDE-043 10 uM • 29. PBMC+LPS (5 ug/ml)+YDE-043 1 uM • 30. PBMC+LPS (5 ug/ml)+YDE-043 0.1 uM • 31. PBMC+LPS (5 ug/ml)+YDE-043 0.01 uM • 32. PBMC+LPS (5 ug/ml)+YDE-043 0.001 uM
Multiplex assay was used to measure 30 cytokines and chemokines. The 1:2, 1:10 and 1:200 diluted cell supernatant and serial dilution of the standard were dispensed into a 96 well plate at 50 ul/well. Then, the pre-mixed cocktail of antibody-coated magnetic beads was dispensed at 50 ul/well and incubated at room temperature for 2 h in a horizontal orbital microplate shaker at 800±500 rpm. The beads were washed using a magnetic device to prevent loss. The biotin-antibody was dispensed in 50 ul of each well and incubated at room temperature for 1 h in a shaker at 800±500 rpm. After washing, streptavidin-PE was added at 50 ul/well and incubated at room temperature for 30 min in a shaker under the same conditions. Finally, after washing, wash buffer (100 ul/well) was added to the plate and incubated in a shaker for 2 min. The Luminex™ 200 setting were set according to the manufacturer's protocol. The data was calculated with a standard five-parameter logistic nonlinear regression analysis of the data (xPonent software 4.2, USA). The levels of cytokine/chemokine are normalized to the live cell counts (1×10^5 cells/mL) and presented as concentrations per mL (pg/mL or ng/mL).

[1] = PBMC + LPS(5 ug/ml) + test article 0.001 uM, Mean
[2] = PBMC + LPS(5 ug/ml) + test article 0.001 uM, single replicates
[3] = PBMC + LPS(5 ug/ml) + test article 0.01 uM, Mean
[4] = PBMC + LPS(5 ug/ml) + test article 0.01 uM, single replicates
[5] = PBMC + LPS(5 ug/ml) + test article 0.1 uM, Mean
[6] = PBMC + LPS(5 ug/ml) + test article 0.1 uM, single replicates
[7] = PBMC + LPS(5 ug/ml) + test article 1 uM, Mean
[8] = PBMC + LPS(5 ug/ml) + test article 1 uM, single replicates
[9] = PBMC + LPS(5 ug/ml) + test article 10 uM, Mean
[10] = PBMC + LPS(5 ug/ml) + test article 10 uM, single replicates
[11] = PBMC + LPS(5 ug/ml) + test article 100 uM, Mean
[12] = PBMC + LPS(5 ug/ml) + test article 100 uM, single replicates
[13] = PBMC + test article 0.01 uM, no LPS, Mean
[14] = PBMC + test article 0.01 uM, no LPS, single replicates
[15] = PBMC + test article 0.1 uM, no LPS, Mean
[16] = PBMC + test article 0.1 uM, no LPS, single replicates
[17] = PBMC + test article 10 uM, no LPS, Mean
[18] = PBMC + test article 10 uM, no LPS, single replicates
[19] = PBMC + test article 100 uM, no LPS, Mean
[20] = PBMC + test article 100 uM, no LPS, single replicates

CC(C)C[C@H](NC(=O)[C@H](CCC(N)=O)NC(=O)CNC(=O)[C@@H]1C[C@@H](O)CN1)C(=O)NCC(=O)O [YDE-043] (H-[Hyp]GQLG-OH; N-terminus and C-terminus assumed)
Concentration [1]: 305.6 pg/mL
conc/live cell (pg/10^5) [1]: 62.5 pg/10^5
Concentration [2]: 335.7 pg/mL and 298.3 pg/mL and 282.9 pg/mL
conc/live cell (pg/10^5) [2]: 76.3 pg/10^5 and 49.7 pg/10^5 and 61.5 pg/10^5
Concentration [3]: 344.9 pg/mL
conc/live cell (pg/10^5) [3]: 65.7 pg/10^5
Concentration [4]: 344.9 pg/mL and 362.6 pg/mL and 327.1 pg/mL
conc/live cell (pg/10^5) [4]: 76.7 pg/10^5 and 54.9 pg/10^5 and 65.4 pg/10^5
Concentration [5]: 322.4 pg/mL
conc/live cell (pg/10^5) [5]: 59.9 pg/10^5
Concentration [6]: 330.0 pg/mL and 312.8 pg/mL and 324.3 pg/mL
conc/live cell (pg/10^5) [6]: 66.0 pg/10^5 and 55.9 pg/10^5 and 57.9 pg/10^5
Concentration [7]: 327.6 pg/mL
conc/live cell (pg/10^5) [7]: 62.1 pg/10^5
Concentration [8]: 328.6 pg/mL and 312.8 pg/mL and 341.4 pg/mL
conc/live cell (pg/10^5) [8]: 56.7 pg/10^5 and 65.2 pg/10^5 and 64.4 pg/10^5
Concentration [9]: 297.7 pg/mL
conc/live cell (pg/10^5) [9]: 55.2 pg/10^5
Concentration [10]: 318.5 pg/mL and 277.0 pg/mL and 297.5 pg/mL
conc/live cell (pg/10^5) [10]: 61.3 pg/10^5 and 51.3 pg/10^5 and 53.1 pg/10^5
Concentration [11]: 109.4 pg/mL
conc/live cell (pg/10^5) [11]: 17.4 pg/10^5
Concentration [12]: 106.7 pg/mL and 112.1 pg/mL
conc/live cell (pg/10^5) [12]: 17.2 pg/10^5 and 17.5 pg/10^5

CC(C)C[C@H](NC(=O)CNC(=O)[C@H](CC(=O)O)NC(=O)[C@H](CCC(N)=O)NC(=O)CNC(=O)[C@@H]1C[C@@H](O)CN1)C(=O)N[C@@H](C)C(=O)NCC(=O)N1CCC[C@H]1C(=O)N[C@@H](CCCCN)C(=O)O [YY-101] (H-[Hyp]GQDGLAGPK-OH; N-terminus and C-terminus assumed)
Concentration [1]: 479.4 pg/mL
conc/live cell (pg/10^5) [1]: 74.9 pg/10^5
Concentration [2]: 501.5 pg/mL and 488.8 pg/mL and 447.9 pg/mL
conc/live cell (pg/10^5) [2]: 88.0 pg/10^5 and 68.9 pg/10^5 and 67.9 pg/10^5
Concentration [3]: 499.9 pg/mL
conc/live cell (pg/10^5) [3]: 81.1 pg/10^5
Concentration [4]: 492.8 pg/mL and 499.5 pg/mL and 507.4 pg/mL
conc/live cell (pg/10^5) [4]: 77.0 pg/10^5 and 83.2 pg/10^5 (2×)
Concentration [5]: 445.6 pg/mL
conc/live cell (pg/10^5) [5]: 76.6 pg/10^5
Concentration [6]: 426.9 pg/mL and 459.4 pg/mL and 450.6 pg/mL
conc/live cell (pg/10^5) [6]: 68.9 pg/10^5 and 88.3 pg/10^5 and 72.7 pg/10^5
Concentration [7]: 519.9 pg/mL
conc/live cell (pg/10^5) [7]: 80.1 pg/10^5
Concentration [8]: 556.7 pg/mL and 484.8 pg/mL and 518.0 pg/mL
conc/live cell (pg/10^5) [8]: 88.4 pg/10^5 and 68.3 pg/10^5 and 83.6 pg/10^5
Concentration [9]: 474.4 pg/mL
conc/live cell (pg/10^5) [9]: 72.3 pg/10^5
Concentration [10]: 464.8 pg/mL and 537.1 pg/mL and 421.4 pg/mL
conc/live cell (pg/10^5) [10]: 77.5 pg/10^5 and 83.9 pg/10^5 and 55.4 pg/10^5
Concentration [11]: 172.4 pg/mL
conc/live cell (pg/10^5) [11]: 29.9 pg/10^5
Concentration [12]: 173.5 pg/mL and 168.6 pg/mL and 175.1 pg/mL
conc/live cell (pg/10^5) [12]: 27.5 pg/10^5 and 27.2 pg/10^5 and 35.0 pg/10^5
Concentration [13]: 4.3 pg/mL
conc/live cell (pg/10^5) [13]: 0.5 pg/10^5
Concentration [14]: 4.3 pg/mL
conc/live cell (pg/10^5) [14]: 0.0 pg/10^5 and 0.9 pg/10^5
Concentration [15]: 4.3 pg/mL
conc/live cell (pg/10^5) [15]: 0.4 pg/10^5
Concentration [16]: 4.3 pg/mL
conc/live cell (pg/10^5) [16]: 0.0 pg/10^5 and 0.7 pg/10^5
conc/live cell (pg/10^5) (PBMC + test article 1 uM, no LPS, Mean): 0.0 pg/10^5
conc/live cell (pg/10^5) (PBMC + test article 1 uM, no LPS, single replicates): 0.0 pg/10^5
Concentration [17]: 12.6 pg/mL
conc/live cell (pg/10^5) [17]: 2.0 pg/10^5
Concentration [18]: 23.2 pg/mL and 2.0 pg/mL
conc/live cell (pg/10^5) [18]: 3.6 pg/10^5 and 0.3 pg/10^5
Concentration [19]: 8.2 pg/mL
conc/live cell (pg/10^5) [19]: 0.6 pg/10^5
Concentration [20]: 8.2 pg/mL
conc/live cell (pg/10^5) [20]: 1.3 pg/10^5 and 0.0 pg/10^5
LPS-induced IL-10 (in words) (LPS 5 ug/mL 24 hrs, 100 uM to 1 nM): significantly reduced

— patent US20230146455A1, “TREATMENT OF INFLAMMATORY DISEASES WITH PEPTIDES AND PHARMACEUTICAL COMPOSITIONS” (Yuyu Pharma, Inc., priority 2020, published 2023)
